Where two headings read alike, the source gives them in different places.
Tests used:
SEQ ID NO:5 = details: male, Sprague-Dawley, rat, in vivo, ip, 250 mg/kg
Procedure: (§1) For each target preparation, frozen liver was homogenized and lysed in TRIZOL reagent (Life Technologies, Gaithersburg Md.) following the modifications for liver RNA isolation. Messenger RNA was isolated using an OLIGOTEX kit (QIAGEN) and labeled with either Cy3- or Cy5-labeled primers (Operon Technologies, Alameda Calif.) using the GEMBRIGHT labeling kit (Incyte Pharmaceuticals). […] Quantitative and differential expression pattern control cDNAs were added to each labeling reaction. Labeled cDNA was treated with 0.5 M sodium bicarbonate. (pH 9.2) for 20 min at 85 ° C. to degrade the RNA and purified using two successive CHROMA SPIN 30 gel filtration spin columns (Clontech, Palo Alto Calif.). Cy3-labeled control sample and Cy5-labeled experimental sample were combined and precipitated in glycogen, sodium acetate, and ethanol.
(§2) Hybridizations were carried out using the methods described by Shalon (supra).
(§3) The microscope used to detect the reporter-labeled hybridization complexes was equipped with an Innova 70 mixed gas 10 W laser (Coherent Lasers, Santa Clara Calif.) capable of generating spectral lines at 488 nm for excitation of Cy3, and 632 nm for excitation of Cy5. The excitation laser light was focused on the array using a 20×microscope objective (Nikon, Melville N.Y.). The slide containing the array was placed on a computer-controlled X-Y stage on the microscope and raster-scanned past the objective. The 1.8 cm×1.8 cm array used in the present example was scanned with a resolution of 20 micrometers.
(§4) In two separate scans, a mixed gas multiline laser excited the two fluorophores sequentially. Emitted light was split, based on wavelength, into two photomultiplier tube detectors (PMT R1477, Hamamatsu Photonics, San Jose Calif.) corresponding to the two fluorophores. Appropriate filters positioned between the array and the photomultiplier tubes were used to filter the signals. The emission maxima of the fluorophores used were 565 nm for Cy3 and 650 nm for Cy5. Each array was typically scanned twice, one scan per fluorophore using the appropriate filters at the laser source, although the apparatus was capable of recording the spectra from both fluorophores simultaneously.
(§5) When two probes from different sources (e.g., representing test and control cells), each labeled with a different fluorophore, are hybridized to a single array for the purpose of identifying genes that are differentially expressed, the calibration was done by labeling samples of the calibrating cDNA with the two fluorophores and adding identical amounts of each to the hybridization mixture.
(§6) A grid was superimposed over the fluorescence signal image such that the signal from each spot was centered in each element of the grid. The fluorescence signal within each element was then integrated to obtain a numerical value corresponding to the average intensity of the signal. The software used for signal analysis was the GEMTOOLS gene expression analysis program (Incyte Pharmaceuticals).

SEQ ID NO:2 = details: male, Sprague-Dawley, rat, in vivo, ip, 250 mg/kg
Procedure: as §1, §2, §3, §4, §5, §6

SEQ ID NO:3 = details: male, Sprague-Dawley, rat, in vivo, ip, 250 mg/kg
Procedure: as §1, §2, §3, §4, §5, §6

SEQ ID NO:8 = details: male, Sprague-Dawley, rat, in vivo, ip, 250 mg/kg
Procedure: as §1, §2, §3, §4, §5, §6

P450 LA-omega 4A3 = assay: microarray gene expression in treated rat liver; type: in vivo; details: clofibrate-treated rat liver, 250 mg/kg bw i.p. single dose
Procedure: as §1, §2, §3, §4, §5, §6

SEQ ID NO:4 = assay: microarray gene expression in treated rat liver; type: in vivo; details: CLO-treated rat liver, 250 mg/kg bw i.p. single dose
Procedure: as §1, §2, §3, §4, §5, §6

P450 4A = assay: microarray gene expression in treated rat liver; type: in vivo; details: clofibrate-treated rat liver, 250 mg/kg bw i.p. single dose
Procedure: as §1, §2, §3, §4, §5, §6

P450 3A2 = assay: microarray gene expression in treated rat liver; type: in vivo; details: clofibrate-treated rat liver, 250 mg/kg bw i.p. single dose
Procedure: as §1, §2, §3, §4, §5, §6

Gene expression (x-fold change) of SEQ ID NO: 5 (SEQ ID NO:5; 12 h): 1.7 x-fold change
Gene expression (x-fold change) of SEQ ID NO: 5 (SEQ ID NO:5; 24 h): 2.9 x-fold change
Gene expression (x-fold change) of SEQ ID NO: 5 (SEQ ID NO:5; 3 days): 1.6 x-fold change
Gene expression (x-fold change) of SEQ ID NO: 5 (SEQ ID NO:5; 7 days): 1.5 x-fold change
Gene expression (x-fold change) of SEQ ID NO: 5 (SEQ ID NO:5; 28 days): 1.2 x-fold change
Gene expression (x-fold change) of SEQ ID NO: 2 (SEQ ID NO:2; 12 h): 2.6 x-fold change
Gene expression (x-fold change) of SEQ ID NO: 2 (SEQ ID NO:2; 24 h): 1.4 x-fold change
Gene expression (x-fold change) of SEQ ID NO: 2 (SEQ ID NO:2; 3 days): 0.5 x-fold change
Gene expression (x-fold change) of SEQ ID NO: 2 (SEQ ID NO:2; 7 days): 1.1 x-fold change
Gene expression (x-fold change) of SEQ ID NO: 2 (SEQ ID NO:2; 28 days): 1.2 x-fold change
Gene expression (x-fold change) of SEQ ID NO: 3 (SEQ ID NO:3; 12 h): 1.3 x-fold change
Gene expression (x-fold change) of SEQ ID NO: 3 (SEQ ID NO:3; 24 h): 2 x-fold change
Gene expression (x-fold change) of SEQ ID NO: 3 (SEQ ID NO:3; 3 days): 1.3 x-fold change
Gene expression (x-fold change) of SEQ ID NO: 3 (SEQ ID NO:3; 7 days): 1.5 x-fold change
Gene expression (x-fold change) of SEQ ID NO: 3 (SEQ ID NO:3; 28 days): 1.5 x-fold change
Gene expression (x-fold change) of SEQ ID NO: 8 (SEQ ID NO:8; 12 h): 2.6 x-fold change
Gene expression (x-fold change) of SEQ ID NO: 8 (SEQ ID NO:8; 24 h): 1.7 x-fold change
Gene expression (x-fold change) of SEQ ID NO: 8 (SEQ ID NO:8; 3 days): 1.3 x-fold change
Gene expression (x-fold change) of SEQ ID NO: 8 (SEQ ID NO:8; 7 days): 1.3 x-fold change
Gene expression (x-fold change) of SEQ ID NO: 8 (SEQ ID NO:8; 28 days): 1.4 x-fold change
Gene expression (x-fold change) of P450 LA-omega 4A3 (P450 LA-omega 4A3; 12 hours): 14.8 x-fold change
Gene expression (x-fold change) of P450 LA-omega 4A3 (P450 LA-omega 4A3; 24 hours): 26.6 x-fold change
Gene expression (x-fold change) of P450 LA-omega 4A3 (P450 LA-omega 4A3; 3 days): 1.1 x-fold change
Gene expression (x-fold change) of P450 LA-omega 4A3 (P450 LA-omega 4A3; 7 days): 0.5 x-fold change
Gene expression (x-fold change) of P450 LA-omega 4A3 (P450 LA-omega 4A3; 28 days): 0.47 x-fold change
Gene expression (x-fold change) of SEQ ID NO: 4 (SEQ ID NO:4; 12 hours): 2 x-fold change
Gene expression (x-fold change) of SEQ ID NO: 4 (SEQ ID NO:4; 24 hours): 0.36 x-fold change
Gene expression (x-fold change) of SEQ ID NO: 4 (SEQ ID NO:4; 3 days): 0.47 x-fold change
Gene expression (x-fold change) of SEQ ID NO: 4 (SEQ ID NO:4; 7 days): 0.26 x-fold change
Gene expression (x-fold change) of SEQ ID NO: 4 (SEQ ID NO:4; 28 days): 0.30 x-fold change
Gene expression (x-fold change) of P450 4A (P450 4A; 12 hours): 7.0 x-fold change
Gene expression (x-fold change) of P450 4A (P450 4A; 24 hours): 16.6 x-fold change
Gene expression (x-fold change) of P450 4A (P450 4A; 3 days): 1.4 x-fold change
Gene expression (x-fold change) of P450 4A (P450 4A; 7 days): 0.5 x-fold change
Gene expression (x-fold change) of P450 4A (P450 4A; 28 days): 1.3 x-fold change
Gene expression (x-fold change) of P450 3A2 (P450 3A2; 12 hours): 0.14 x-fold change
Gene expression (x-fold change) of P450 3A2 (P450 3A2; 24 hours): 1.2 x-fold change
Gene expression (x-fold change) of P450 3A2 (P450 3A2; 3 days): 0.63 x-fold change
Gene expression (x-fold change) of P450 3A2 (P450 3A2; 7 days): 0.50 x-fold change
Gene expression (x-fold change) of P450 3A2 (P450 3A2; 28 days): 0.45 x-fold change
SMILES: CCOC(=O)C(C)(C)Oc1ccc(Cl)cc1 [clofibrate]
